Experimental data: US20260144769A1, “4-PHENYLBUTYRATE RESTORED GABA UPTAKE AND REDUCED SEIZURES IN SLC6A1 VARIANT-MEDIATED DISORDERS” (Vanderbilt University, priority 2022, published 2026)

Tests used:
[1] = biological target: T1, GAT-1 (Mus musculus, UniProt P31648); test: 3H GABA uptake, cortical astrocytes cultured from wildtype pups; type: cell-based; settings: wt astrocytes (pooled from two mouse lines); PBA 2 mM, 24 hr; SNAP5114 30 μM
T1 construct: endogenous in cells; host or cells: primary cortical astrocytes from wild-type littermate pups (C57BL/6J background), passage 2
Procedure: Mouse cortical astrocytes or neurons were cultured from postnatal pus at day 0-3 days old for astrocytes and day 0 for neurons from the SLC6A1^+/A288V or SLC6A1^+/S295L mouse line. FIGS. 7A-B show astrocytes under passage 2 were grown in […] dishes and passaged into 35-mm^2 dishes before GABA uptake assay.
(§1) FIGS. 7C-D show neurons directly cultured in the 35-mm^2 dishes and GABA uptake was evaluated between day 15-17 days after culture. CI-966 (50 μM) and NNC711 (35 μM) was applied 30 min before preincubation and removed during preincubation. GAT-3 inhibitor SNAP5114 (30 μM) was applied during GABA uptake to make sure only GAT-1 activity was measured. The wildtype astrocytes (FIGS. 7A-B) or cortical neurons (FIGS. 7C-D) of either SLC6A1^+/A288V or SLC6A1^+/S295L were taken as 1. The cultures derived from each mutant mouse was compared to the culture from its own wildtype littermates. […] The wildtype data were pooled from two mouse lines. […] The graph represents the relative GABA uptake level normalized to cells of its own genotype treated with DMSO. CI-966 (50 μM) or NNC-711 (35 μM) was applied 30 min before preincubation and removed during preincubation. Two-way analysis of variance followed by Bonferroni multiple comparison test was used. Values were expressed as mean±S.E.M. In FIG. 7A and FIG. 7C, ***p<0.001 vs. wt; § § § P<0.001 S295L vs. A288V. […]

[2] = test system: GAT-1; test: 3H GABA uptake, cultured cortical neurons from the knockin mice; type: cell-based, mouse; settings: PBA 2 mM, 24 hr
Procedure: as §1
Briefly, cells were cultured in […] dishes for 3 days before the GABA uptake experiment in DMEM with 10% fetal bovine serum and 1% penicillin/streptomycin. […] Glacial acetic acid was added, and lysates were then determined on a liquid scintillator with QuantaSmart. […]

GABA uptake activity normalized to its own DMSO condition [1]: 1.22±0.058
SMILES: O=C(O)CCCc1ccccc1 [PBA, 4-phenylbutyric acid]
GABA uptake in PBA treated cells [2]: upregulation
